# Data taken from US20090028925A1, “Novel Phosphinic Acid-Containing Thyromimetics” (priority 2005, published 2009).
# Experiments:
# liver triglycerides = experiment: Hepatic triglyceride content and steatosis in ZDF rats, oral; assay type: in vivo; settings: orally 28 days
# Method: Normal rats were chronically infused with Compound 7 for 7 days. Liver triglycerides were analyzed following lipid extraction by the Bligh Dyer method (Bligh E G and Dyer W J, A rapid method of total lipid extraction and purification. Can J Med. Sci. 1959 (August); 37(8):911-7, incorporated herein by reference). Total triglycerides were analyzed in the liver extracts by an enzymatic assay (Thermo Electron Corporation). Total lipid was normalized to initial liver weight and triglyceride content was normalized to liver weight. […] There was a 4% reduction in liver triglycerides for this group and the results were not statistically significant.
# In other experiments, Compound 7 was orally administered to ZDF rats for 28 days. Liver triglycerides were analyzed as described above. Total liver triglycerides were reduced in the treated animals 42% in the 2.5 mg/kg/d group. […] The hepatic steatosis is a well known and described phenomenon for the ZDF rat, and therefore not attributable to vehicle treatment.
# [1] = Subacute study in cholesterol-fed rats, IP: heart weight and heart mGPDH activity
# Method: The cholesterol-fed rat is an animal model of hypercholesterolemia generated by feeding the animals a diet with high cholesterol content.
# Serum cholesterol values were assessed and the animals randomized into groups for treatment.
structure (smiles),measurement,setting,value
"Cc1cc(OCP(=O)(O)O)cc(C)c1Cc1ccc(O)c(C(C)C)c1 [Compound 7, [3,5-dimethyl-4-(4′-hydroxy-3′-iso-propylbenzyl)phenoxy]methylphosphonic acid]","microvesicular steatosis, histologic analysis of liver sections",liver triglycerides,dose dependent reduction in the microvesicular steatosis
same,cardiac hypertrophy,[1]; IP once-a-day for seven days,No cardiac hypertrophy was observed
same,"therapeutic window between efficacy (cholesterol lowering) and toxicity (cardiac hypertrophy, heart GPDH)",[1]; IP seven days,10- to 100 fold
same,heart GPDH activity,"[1]; IP, 100 mg/kg",trend towards increased heart GPDH activity
same,adverse cardiac effects,"[1]; IP, any dose",No adverse cardiac effects were observed
